{"source": "patent US20040259173A1", "about": "“Method of determining target protein of drug” (priority 2001, published 2004)", "key": {"[1]": {"system": "signal transduction of tyrosine kinase src", "conditions": "cited from earlier work"}, "[2]": {"system": "proteins in cell lysate of HCT116", "assay": "Protease digestion assay of HCT116 cell lysate, SDS-PAGE with Coomassie Brilliant Blue staining", "type": "biochemical, human", "conditions": "UCS15A 0-300 μmol/L, 37° C. for 12 hours, endogenous protease", "method": "(§1) By using Dulbecco's modification of Eagle's medium (DMEM) containing 10% fetal bovine serum, human colon tumor cell line HCT116 (ATCC number CCL-247) was cultured on 100 mm diameter dishes for cell culturing in a CO2 incubator at 37° C. under 5% CO2 condition, and proliferated by subculture with division into five portions every 3 days. The culture medium was removed from three HCT116 cell dishes on the third day from the subculture, and cells were washed by addition and successive removal of 10 ml of ice-cooled PBS. To these cells, 10 mL of RSB (10 mmol/L Tris-hydrochloride pH7.6, 10 mmol/L NaCl, 1.5 mmol/L MgCl2) having a low osmotic pressure was added. After the cells were put on ice for 10 minutes to allow expansion, the cells were detached from the dishes and put into 15 mL volume Dounce homogenizer together with the already added RBS. The cells were disrupted by 50 strokes of a pestle. This cell lysate was centrifuged at 4° C., 15,000 rpm for 30 minutes. The obtained supernatant was collected, and divided into ten 1 mL aliquots.\nUCS15A was isolated and purified from Streptmyces actinobacterium, according to the descriptions in Japanese Published Unexamined Patent Application No. 58-116686, and a dimethylsulfoxide (DMSO) solution at a concentration of 10 mmol/L was prepared. […]"}, "src and Sam68": {"molecular_target": "src and Sam68 (Homo sapiens, UniProt Q07666)", "sequence (Q07666 whole entry, species assumed)": "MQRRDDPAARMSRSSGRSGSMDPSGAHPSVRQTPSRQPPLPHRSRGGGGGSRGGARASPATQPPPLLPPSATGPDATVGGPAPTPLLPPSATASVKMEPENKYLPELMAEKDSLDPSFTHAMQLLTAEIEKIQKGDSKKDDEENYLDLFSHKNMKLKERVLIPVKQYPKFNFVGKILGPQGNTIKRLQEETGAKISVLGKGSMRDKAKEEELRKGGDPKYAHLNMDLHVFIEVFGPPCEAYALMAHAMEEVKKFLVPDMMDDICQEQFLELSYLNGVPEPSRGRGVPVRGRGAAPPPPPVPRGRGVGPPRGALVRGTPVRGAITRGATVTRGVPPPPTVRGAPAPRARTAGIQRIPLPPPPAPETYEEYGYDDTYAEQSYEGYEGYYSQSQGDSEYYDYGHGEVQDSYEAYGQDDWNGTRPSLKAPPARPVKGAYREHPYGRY", "conditions": "cited from earlier work"}, "bone resorption": {"system": "bone resorption", "conditions": "cited from earlier work"}, "Sam68": {"molecular_target": "T1, Sam68 (Homo sapiens, UniProt Q07666)", "T1 construct": "endogenous in cells; host or cells: HCT116 (ATCC CCL-247) cell lysate", "T1 sequence (Q07666 whole entry)": "as the sequence (Q07666 whole entry, species assumed) above", "assay": "Protease digestion assay with specific detection of Sam68 by Western blotting", "type": "biochemical", "conditions": "HCT116 cell lysate, 37° C. for 12 hours", "method": "as §1, with “The obtained supernatant was collected, and divided into ten 1 mL aliquots.” left out\nSam68 in the cell lysate was detected by Western blotting as described below. […]\nWhen the protease digestion assay described in (2) was conducted, a protease inhibitor cocktail (Complete; manufactured by Roche) which can inhibit wide variety of proteases was added along with UCS15A, and the same reaction was proceeded. After the electrophoresis, Sam68 was detected by Western blotting in a same manner to that of (3). […]"}, "src": {"molecular_target": "src (Homo sapiens, UniProt P12931)", "conditions": "cited from earlier work"}}}
{"substance": "UCS15A", "values": [{"measurement": "inhibition of signal transduction of tyrosine kinase src", "setting": "[1]", "value": "inhibit the signal transduction of tyrosine kinase src"}, {"measurement": "change of protein amounts in the cell lysate (Coomassie Brilliant Blue stained gel)", "setting": "[2]", "value": "Several proteins, which decreased their amounts with the increase of UCS15A concentration, were observed"}, {"measurement": "inhibition of binding between src and Sam68", "setting": "src and Sam68", "value": "specifically inhibit the binding between src and Sam68"}, {"measurement": "inhibitory activity on bone resorption", "setting": "bone resorption", "value": "has an inhibitory activity on bone resorption"}, {"measurement": "amount of Sam68 in the cell lysate (Western blotting)", "setting": "Sam68; UCS15A 0-300 μmol/L, endogenous protease, without protease inhibitor", "value": "the amount of Sam68 in the cell lysate decreased with the increase of the UCS15A concentration"}, {"measurement": "amount of Sam68 in the cell lysate with protease inhibitor (Western blotting)", "setting": "Sam68; protease inhibitor cocktail (Complete) added along with UCS15A", "value": "the decrease of the amount of Sam68 in the cell lysate was inhibited by the addition of a protease inhibitor"}, {"measurement": "inhibition of enzyme activity of src", "setting": "src", "value": "not to inhibit the enzyme activity of src"}]}
